Kd data for one molecule are collected here from patent publication US10851367B2, “Tissue-specific genome engineering using CRISPR-Cas9” (Pfizer Inc., priority 2015, dated 2020).

The assay addresses T1, ASGPR (Homo sapiens, UniProt P07306).
T1 sequence (P07306 148-291 limits assumed): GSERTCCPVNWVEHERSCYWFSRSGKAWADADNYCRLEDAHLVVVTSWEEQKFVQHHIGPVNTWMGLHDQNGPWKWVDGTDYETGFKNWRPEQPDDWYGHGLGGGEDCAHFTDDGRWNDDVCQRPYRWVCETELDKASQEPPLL
Put plainly: SPR binding measurements for ASGPr ligands (Biacore 3000). To be noted: biotinylated ASGPR immobilized, 25° C., each run separately reported or n and std dev noted. How it is done:
SPR Binding Measurements for ASGPr Ligands:
All SPR measurements with compounds were performed using a Biacore 3000 (GE Healthcare) at 25° C. Biotinylated ASGPR was immobilized typically at 2000-3000 resonance units (Ru) using either SA sensor chips (GE Healthcare) or custom sensor chips with Neutravidin (Pierce Biochemical) immobilized by standard amine coupling to CM5 sensor chips (GE Healthcare). The running buffer was HBS (10 mM HEPES, 150 mM NaCl), 20 mM CaCl2, 0.01% p20, 3% DMSO or 50 mM tris, 150 mM NaCl, 50 mM CaCl2, 0.01% p20, 3% DMSO pH 7.5. Compounds were diluted into running buffer at a concentration of 900 uM and serially diluted 3 fold to 3.7 uM. Compound solutions were injected at 50 ul/min for 1 min followed by a 1 min dissociation in duplicate for each concentration. For the multimeric conjugates (dimers, trimers), the conjugates were diluted in running buffer to concentrations of 100 nM or 10 nM and serially diluted. Conjugates were injected for 2 min and off rates were detected for 300 or 600 sec. After completion of off phase data the compounds were displaced using an injection of 900 uM GalNAc returning the receptor surface to the free state. […] KDs were determined by fitting the steady state binding responses for the compounds and single conjugated molecules in Scrubber2. […]
(In general: In SPR one partner is held on a chip, and binding of the other changes the refractive index at the surface.)

The term pKd denotes the negative decadic logarithm of the Kd, by convention in mol/L.

pKd: −log10 of the molar value.

`CN(C(=O)OC(C)(C)C)[C@H]1[C@H]2OC[C@](CO)(O2)[C@H](O)[C@@H]1O` [Compound 31, tert-butyl [(1S,2R,3R,4R,5S)-2,3-dihydroxy-1-(hydroxymethyl)-6,8-dioxabicyclo[3.2.1]oct-4-yl]methylcarbamate] gave a pKd of 4.91.
